Results reported in patent US20150056702A1, “METHOD AND KIT FOR CULTURING STEM CELLS” (China Medical University, priority 2013, published 2015).

Key:
Assay type in all cases: cell-based, mouse
iPS cells = test: Embryoid body formation and differentiation of the generated iPS cells; conditions: iPS cells (T+P), BP10 medium, Tuj1, α-SMA, Gata4 staining
Experimental: (§1) An experimental group medium (BP10) was used to culture ES cells with an initial density of 1×10^4 per well in a 6-well culture dish. The ES cells were passaged 3 times and incubated for another 2 to 3 days in the Ultra Low Cluster Plate (Costar) containing the embryoid body formation medium [DMEM+20% FBS+β-mercaptoethanol (1 mM)+1% L-glutamine+1% NEAA], and then the embryoid body formation was observed. The embryoid bodies were placed into another 24-well culture dish (5 to 6 embryoid bodies/well) and incubated for another 3 days. Next, immunofluorescence staining was conducted to detect cells with an anti-Tuj1 antibody (ectoderm marker), an anti-α-SMA antibody (mesoderm marker) and an anti-Gata4 antibody (endoderm marker).
In addition, the iPS cells (T+P) were cultured by the steps shown in Example 7 to observe the embryoid body formation and differentiation.

Pou5fl-GFP MEF cells = test: Examination of iPS cell generation efficiency (GFP fluorescence)
Text: The MEF cells were isolated from Pou5fl-GFP transgenic mice (The Jackson lab). The pcDNA-Oct4, pcDNA-Sox2, pcDNA-c-Myc, and pcDNA-Klf4 plasmids were introduced once every two days (4 times total) into the Pou5fl-GFP MEF cells to generate iPS cells through co-transfection. The medium was changed to BP-containing medium 6 days post-transfection, and the medium was exchanged everyday. On day 9, the MEF cells were passaged onto feeder cells provided by Example 1 and the GFP-positive clones were observed. Finally, the GFP fluorescent signals of the iPS cells were detected by a fluorescent microscope. The fluorescent signal intensity is directly proportional to the cell generation efficiency.
This example includes two groups, BP (T+P) and BP (T), wherein BP (T+P) refers to the group cultured with the experimental group medium (BP10) post-transfection and after placing onto feeder cells, and BP (T) refers to the group cultured with the experimental group medium (BP10) post-transfection.

ES cells = test: Embryoid body formation and differentiation of ES cells; conditions: BP10 medium, ES cells passaged 3 times, Tuj1, α-SMA, Gata4 staining
Experimental: The embryoid body formation and differentiation were also observed by immunofluorescence staining to observe the effect of BP on maintaining the pluripotency of ES cells.
as §1

Compound: CCCC=C1OC(=O)c2ccccc21 [BP, n-butylidenephthalide]
- embryoid body formation and differentiation of the iPS cells (iPS cells): can differentiate into three germ layer cells
- GFP fluorescence intensity in the iPS cells formed (Pou5fl-GFP MEF cells; BP (T): BP10 medium post-transfection, Day 7): 20.5
- GFP fluorescence intensity in the iPS cells formed (Pou5fl-GFP MEF cells; BP (T): BP10 medium post-transfection, Day 14): 70.5
- GFP fluorescence intensity in the iPS cells formed (Pou5fl-GFP MEF cells; BP (T): BP10 medium post-transfection, Day 20): 65.5
- GFP fluorescence intensity in the iPS cells formed (Pou5fl-GFP MEF cells; BP (T+P): BP10 medium post-transfection and after placing onto feeder cells, Day 7): 27.5
- GFP fluorescence intensity in the iPS cells formed (Pou5fl-GFP MEF cells; BP (T+P): BP10 medium post-transfection and after placing onto feeder cells, Day 14): 82
- GFP fluorescence intensity in the iPS cells formed (Pou5fl-GFP MEF cells; BP (T+P): BP10 medium post-transfection and after placing onto feeder cells, Day 20): 92.5
- GFP fluorescent signals (iPS cell generation efficiency) (Pou5fl-GFP MEF cells; BP-containing iPS cell medium vs control group (without BP), result in words): higher GFP fluorescent signals
- embryoid body formation and differentiation (ES cells): form an embryoid body and further differentiate into all three germ layer cells
